Source: patent US12649765B2 (Arizona Board of Regents on Behalf of the University of …, priority 2020, dated 2026)
Entries after “also recorded” stand apart in the source; their conditions may differ. Where a SMILES comes first, the peptide text is derived from it. Bridges are numbered along the chain shown (N, C = ends). [ ]: non-standard residue; d: D form. The star is where a group is joined. X1 = OC[C@H]1OC(*)[C@H](O)[C@@H](O)[C@@H]1O; Dap = NC[C@H](N)C(=O)O

Columns and labels:
[1] = molecular target: human Mu Opioid Receptor (MOR) (Homo sapiens, UniProt P35372); test: biochemical; type: binding
OTR = OTR (Homo sapiens, UniProt P30559); test: EC50 (nM) | OTR
Text: Table printed on a drawing sheet, FIG. 6
The patent's description of the figure: FIG. 6 is a table showing EC50 for OXTR agonistic activity for some of the representative cyclic oligopeptides of the invention.
First copying reader's note: Each value cell holds the EC50 together with its ± error; NA is not defined on the sheet.

[2] = 52° C. warm water tail flick assay, iv injection; type: in vivo, CD-1 mice; details: 10 mg/kg iv; for anti-nociception in tail flick assay: 10 second cutoff, male and female CD-1 mice
[3] = 52° C. warm water tail flick assay, icv injection; type: in vivo; details: 10 nmol icv, male and female CD-1 mice
[4] = Paclitaxel-induced CIPN, Von Frey filaments mechanical threshold, icv injection; type: in vivo, CD-1 mice; details: 10 nmol icv on day 8, 2 mg/kg paclitaxel on days 1, 3, 5, 7

human Mu Opioid Receptor (MOR), sequence (P35372 whole entry): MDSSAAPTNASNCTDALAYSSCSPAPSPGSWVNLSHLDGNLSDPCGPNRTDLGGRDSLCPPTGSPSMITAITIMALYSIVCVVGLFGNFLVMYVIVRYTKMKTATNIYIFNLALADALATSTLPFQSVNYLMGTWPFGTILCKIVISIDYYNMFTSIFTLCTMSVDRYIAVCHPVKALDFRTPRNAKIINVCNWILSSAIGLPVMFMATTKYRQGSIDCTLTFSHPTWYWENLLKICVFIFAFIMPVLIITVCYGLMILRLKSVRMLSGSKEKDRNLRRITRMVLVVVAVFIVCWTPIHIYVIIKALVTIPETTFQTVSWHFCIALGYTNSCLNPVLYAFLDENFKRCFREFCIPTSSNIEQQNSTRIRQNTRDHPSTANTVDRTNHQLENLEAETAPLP
OTR, sequence (P30559 whole entry, looked up): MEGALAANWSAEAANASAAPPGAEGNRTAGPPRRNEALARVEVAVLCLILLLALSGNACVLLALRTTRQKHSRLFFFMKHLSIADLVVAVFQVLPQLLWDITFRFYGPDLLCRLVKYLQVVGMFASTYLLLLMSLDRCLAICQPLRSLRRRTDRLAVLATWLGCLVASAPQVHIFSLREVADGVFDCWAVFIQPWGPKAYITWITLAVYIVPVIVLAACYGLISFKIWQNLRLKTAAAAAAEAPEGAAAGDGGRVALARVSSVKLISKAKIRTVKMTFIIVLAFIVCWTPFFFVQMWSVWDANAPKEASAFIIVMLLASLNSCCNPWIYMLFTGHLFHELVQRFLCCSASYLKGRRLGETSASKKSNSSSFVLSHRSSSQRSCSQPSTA

## CC[C@H](C)[C@@H]1NC(=O)[C@H](Cc2ccc(O)cc2)NC(=O)[C@@H](N)CC(=O)NC[C@@H](C(=O)N2CCC[C@H]2C(=O)N[C@@H](CC(C)C)C(=O)NCC(N)=O)NC(=O)[C@H](CC(N)=O)NC(=O)[C@H](CCC(N)=O)NC1=O [2LS118-1, Asp-Tyr-Ile-Gln-Asn-Dap-Pro-Leu-Gly-CONH2 (SEQ ID NO: 5)] (H-DYIQN[Dap]PLG-NH2; lactam 1-6)
[1]
  IC50: > 2.5 µM
  Ki: > 2.5 µM
OTR
  EC50: 3760 ± 3120 nM

## CC[C@H](C)[C@@H]1NC(=O)[C@H](Cc2ccc(O)cc2)NC(=O)[C@@H](N)CCC(=O)NC[C@@H](C(=O)N2CCC[C@H]2C(=O)N[C@@H](CC(C)C)C(=O)NCC(N)=O)NC(=O)[C@H](CC(N)=O)NC(=O)[C@H](CCC(N)=O)NC1=O [2LS118-2, Glu-Tyr-Ile-Gln-Asn-Dap-Pro-Leu-Gly-CONH2 (SEQ ID NO: 6)] (H-EYIQN[Dap]PLG-NH2; lactam 1-6)
[1]
  IC50: > 2.5 µM
  Ki: > 2.5 µM
OTR
  EC50: 7040 ± 2960 nM

## CC[C@H](C)[C@@H]1NC(=O)[C@H](Cc2ccc(O)cc2)NC(=O)[C@@H](N)CNC(=O)C[C@@H](C(=O)N2CCC[C@H]2C(=O)N[C@@H](CC(C)C)C(=O)NCC(N)=O)NC(=O)[C@H](CC(N)=O)NC(=O)[C@H](CCC(N)=O)NC1=O [2LS118-3, Dap-Tyr-Ile-Gln-Asn-Asp-Pro-Leu-Gly-CONH2 (SEQ ID NO: 7)] (H-[Dap]YIQNDPLG-NH2; lactam 1-6)
[1]
  IC50: > 2.5 µM
  Ki: > 2.5 µM

## CC[C@H](C)[C@@H]1NC(=O)[C@H](Cc2ccc(O)cc2)NC(=O)[C@@H](N)CC(=O)NC[C@@H](C(=O)N2CCC[C@H]2C(=O)N[C@@H](CC(C)C)C(=O)N[C@@H](COC2O[C@H](CO)[C@@H](O)[C@H](O)[C@H]2O)C(N)=O)NC(=O)[C@H](CC(N)=O)NC(=O)[C@H](CCC(N)=O)NC1=O (stereo partly drawn) [2LS118-4, Asp-Tyr-Ile-Gln-Asn-Dap-Pro-Leu-SerGlc-CONH2 (SEQ ID NO: 8)] (H-DYIQN[Dap]PLS(X1)-NH2; lactam 1-6; N-terminus assumed)
[2]
  peak effect in tail flick assay: significantly higher peak effect than 2LS118-1
  anti-nociception in tail flick assay: near-maximal efficacy comparable to 10 mg/kg morphine; also recorded: almost half to full maximal efficacy vs. morphine
[3]
  anti-nociception in tail flick assay: the same degree and duration of anti-nociceptive activity; also recorded: substantially equivalent anti-nociception
[4]
  anti-nociception in CIPN model (mechanical threshold): high anti-nociceptive efficacy; also recorded: substantially equivalent anti-nociception

## CC[C@H](C)[C@@H]1NC(=O)[C@H](Cc2ccc(O)cc2)NC(=O)[C@@H](N)CSSC[C@@H](C(=O)N2CCC[C@H]2C(=O)N[C@@H](CC(C)C)C(=O)NCC(N)=O)NC(=O)[C@H](CC(N)=O)NC(=O)[C@H](CCC(N)=O)NC1=O [native OT, Cys-Tyr-Ile-Gln-Asn-Cys-Pro-Leu-Gly-CONH2 (SEQ ID NO: 1), reference compound]
[2]
  anti-nociception in tail flick assay: no anti-nociception; also recorded: no efficacy
[2]; listed as Native OT
  anti-nociception in tail flick assay: no effect
[3]
  anti-nociception in tail flick assay: the same degree and duration of anti-nociceptive activity; also recorded: substantially equivalent anti-nociception
